In US20100004171A1, “Therapeutic Methods for Neuropathic Pain” (priority 2006, published 2010):
Where no end group is shown, it is not given here.

Columns and labels:
[1] = system: NMDA receptors; conditions: cited from earlier work; for effect on hyperalgesia and allodynia: given systemically and locally; for doses at which the effects are seen: reported by some researchers
[2] = system: agrin protein; assay: Rat lumbar spinal tissue culture, agrin protein by Western blot; type: cell-based
Description: (§1) Spinal cord tissue culture: The dorsal horn of fresh rat lumbar spinal cord was cut into 1-mm sections with a sharp blade under sterile conditions and maintained in culture in 12-well plates with DMEM and 10% FBS. After 2 days, 100 μM NMDA was added to 6 wells. The other 6 wells were used as controls. The culture was maintained for 24 hr, and the tissue subjected to RNA and protein extraction as well as RT-PCR and Western blotting to examine alterations of agrin gene and protein, as described in this Example.
Western blot: Protein (20 μg) from each sample was mixed with 2× electrophoresis buffer and boiled for 5 min. The samples, along with a negative control, were loaded on 4-15% acrylamide tris-glycine SDS gels and electrophoresed in a cell (Bio-Rad) for approximately 1 hr. A Hybond-P polyvinylidene difluoride membrane (Bio-Rad, Hercules, Calif.) was used for transferring the protein in a mini-trans-blot transfer cell (Bio-Rad) for 2 hr. The membrane was then soaked in 2% milk for 1 hour and probed with monoclonal agrin antibody (Agr510 and Agr530, 1:5000, StressGen Biotechnologies Corp., Victoria, Canada) or β-actin antibody (1:5000) at 4° C. overnight with continual shaking. […] The membrane was then scanned with an Odyssey (LI-COR) scanner and analyzed by Odyssey software (Li-Cor, Lincoln, Nebr.). […]

[3] = system: agrin mRNA; assay: Rat lumbar spinal tissue culture, agrin mRNA by RT-PCR; type: cell-based; conditions: for agrin gene expression: 24 h
Description: as §1
Following peripheral nerve injury, large amounts of glutamate, aspartate, and substance P are released into the extracellular space and excite post-synaptic neurons. […] Exogenous NMDA and substance P (“SP”) were used to culture rat lumbar spinal tissue. The normal dorsal part of lumbar spinal cord was cut into 0.5 mm slices and cultured in DMEM plus 10% FBS serum. After culturing for 24 h, the slices were treated with 100 μM NMDA with or without 10 nM substance P. Control slices were not treated with NMDA or substance P. Each group (experimental and control) had six samples. At 6 h and 24 h after treatment, the slices were subjected to RNA and protein extraction. The extractions were then assayed for agrin mRNA and agrin protein as described above in Examples 1-3. Briefly, the agrin mRNA was assayed using RT-PCR using C-terminal agrin primers for 36 cycles; and the agrin protein was assayed using Western Blot.

[4] = system: tactile allodynia in allodynic rats; assay: Tactile allodynia test (von Frey filaments, paw withdrawal threshold) in CCI (Bennett model) rats; type: in vivo, rat; conditions: for effect on paw-withdrawal threshold: intrathecal 100 nmol in 10 μl in allodynic rats, day 7 after injury, up to 8 hr
Source text: Bennett Model: In this model, approximately 0.8 cm of the left sciatic nerve was exposed and freed with sharpened scissors at middle-thigh level as described by Bennett and Xie.^[76] Four ligatures were placed loosely around the sciatic nerve with 4-0 chromic catgut, with 1 mm space between the ties, which compresses the nerve but epineural blood circulation is preserved. The tissue and skin were closed in layers. […] Most allodynia was seen during the time period of 7-14 days after the surgery.
Intrathecal catheter installation: A PE10 catheter, stretched to a somewhat thinner diameter in the distal part, was introduced into the spinal canal (subarachnoid space) via a 21 G (gauge) cannula between the L5 and L6 lamina and advanced to the lumbar enlargement in rats. The proximal part was tunneled under the skin and led out on the upper dorsal region. The location of the catheter was verified by the injection of 6 μl (50 mg/ml) xylocalne, such that a transient, flaccid paralysis of the legs was produced, and by X-ray after administration of 10 μl iodine contrast medium (Astra, Sweden). The catheter could be kept for up to two weeks in animals.^[79]
(§2) The maximum volume injected at any one time was 10 μl.^[79]
Tactile allodynia test: In a transparent glass chamber (20×20 cm) with a mesh net floor, each animal was subjected to the tactile allodynia test. A positive response is when an innocuous tactile stimulus induces a brief paw withdrawal away from the stimulation, similar to a paw withdrawal due to heat. A set of von Frey filaments from 0.01 to 28 g (Stoelting Co., Wood Dale, Ill.) were applied to the mid-paw of the allodynic rats at 1 gram, and then progressing up or down. The filament was pressed against the plantar surface for 1 to 2 seconds until it bent. Subsequent applications were made with a higher or lower von Frey filament depending on the animal response. The testing always began with normal paws. If a filament induced a brief paw withdrawal of a paw without bending in three out of five tests, the size of the filament was recorded as eliciting a positive withdrawal threshold.^[80] Allodynia was considered to be present when a withdrawal threshold was evoked by a filament corresponding to 8 grams or less.
(§3) In rats with tactile allodynia (a withdrawal threshold with a filament below 8 g), an intrathecal catheter (PE 10) was installed and linked to an osmotic pump (Alzet) in a 37° C. water bath. Following a bolus injection of SCP-1 (30 nmol/kg, 10 μl), agrin siRNA (100 nM) was intrathecally administered continuously by the pump at a rate of 5 μl/1 hour for 4 hr. The animals were subjected to von Frey filament test every 15 min for 4 hr to determine whether the effects of SCP-1 on allodynia suppression are blocked by agrin siRNA. A control siRNA (nFsiRNA) was applied in the same way. The behavioral data was analyzed for agrin effects. Immediately after behavioral experiments, the animals were sacrificed and subjected to protein extraction of lumbar spinal cord, followed by Western-blot analysis as described above.
A blind test was designed for intrathecal drug evaluations. Five days after CCI, rats were subjected to tactile allodynia tests with von Frey filaments. If a filament corresponding to 8 grams or less evoked a withdrawal response on the rat paw (at least 3 responses out of 5 stimuli), the value was designated as the allodynia threshold. […] Either a drug (100 nmol in 10 μl saline) or vehicle (only 10 μl saline) was pre-warmed and intrathecally injected into the allodynic rats. Then the rats were assayed for changes in allodynic and hyperalgesic behavior, agrin gene expression, and agrin protein changes. In addition, distribution and amount of agrin in the dorsal horn were visualized using immunostaining of L5 as reported above in Example 7.

[5] = system: rodents; conditions: rodents, dose of 6 mmol/kg; cited from earlier work
[6] = system: agrin protein; assay: Western blot of agrin protein in L3-5 spinal cord; type: in vivo, rat
Description: Western blot for detecting protein expression of agrin: Agrin protein was analyzed from L3-5 spinal cord with Western blot as described below at times of 1 day, 3 days, and 7 days post-surgery. The changes in these proteins between sham-operated, nerve-injured (no drug), and nerve-injured (pre-emptive drug) groups were analyzed.
Agrin Protein Extraction: The rats were deeply anesthetized with isoflurane and decapitated. Spinal cord L3-5 was quickly removed and immediately placed into tissue lysis buffer (1 ml, Sigma Co., St. Louis, Mo.) that contained protein enzyme inhibitors (1:100, Halt, Pierce). The tissue was homogenized for 2 min and incubated on ice for 45 min. The sample was then centrifuged at 10,000×g for 30 min at 4° C. The supernatant was transferred to a new tube and centrifuged again for further clarifying. The concentration of the protein was determined by an Agilent's Bio-Rad protein chip (Agilent's 2100 bioanalyzer, Santa Clara, Calif.) and by the […] (reagents from Bio-Rad).
Western blot: Protein (20 μg) from each sample was mixed with 2× electrophoresis buffer and boiled for 5 min. The samples, along with a negative control, were loaded on 4-15% acrylamide tris-glycine SDS gels and electrophoresed in a cell (Bio-Rad) for approximately 1 hr. A Hybond-P polyvinylidene difluoride membrane (Bio-Rad, Hercules, Calif.) was used for transferring the protein in a mini-trans-blot transfer cell (Bio-Rad) for 2 hr. The membrane was then soaked in 2% milk for 1 hour and probed with monoclonal agrin antibody (Agr510 and Agr530, 1:5000, StressGen Biotechnologies Corp., Victoria, Canada) or β-actin antibody (1:5000) at 4° C. overnight with continual shaking. The following day goat anti-mouse secondary antibody conjugated to Alexa Fluor680 (1:5000, Molecular Probe) was added to the membrane and incubated for 1 hr at room temperature. The samples were washed three times with TBS buffer (Tris Buffered Saline, DAKO, Carpinteria, Calif.) between steps. The membrane was then scanned with an Odyssey (LI-COR) scanner and analyzed by Odyssey software (Li-Cor, Lincoln, Nebr.).
as §3, with “Immediately after behavioral experiments, the animals were sacrificed and subjected to protein extraction of lumbar spinal cord, followed by Western-blot analysis as described above.” left out

[7] = system: tactile allodynia in allodynic rats; assay: Tactile allodynia test (von Frey filaments, paw withdrawal threshold) in CCI (Bennett model) rats; type: in vivo, rat
[8] = system: thermal hyperalgesia in allodynic rats; assay: Thermal hyperalgesia test (paw withdrawal latency) in CCI (Bennett) rats; type: in vivo, rat
[9] = system: transitory inflammatory-induced hyperalgesia; conditions: pain model with transitory inflammatory-induced hyperalgesia; cited from earlier work
[10] = Solubility for intrathecal injection; type: physicochemical
Description: as §2

C[C@@H]([C@@H](O)c1ccc(O)cc1)N1CCC(O)(c2ccccc2)CC1 [(1S,2S)-1-(4-hydroxy-phynel)-2-(4-hydroxy-4-phenyl-piperidino)-1-propanol]
effect on hyperalgesia/allodynia ([1]; animal models of neuropathic pain): depressed hyperalgesia/allodynia at a dose devoid of adverse effects

CNC1(c2ccccc2Cl)CCCCC1=O (stereo not drawn) [ketamine]
effect on hyperalgesia and allodynia [1]: suppress hyperalgesia and allodynia | doses at which the effects are seen [1]: only be seen at doses that induce ataxia

CN[C@H](CC(=O)O)C(=O)O [NMDA]
agrin protein ([2]; 100 μM NMDA, 24 h): a decrease in agrin | agrin mRNA ([3]; 100 μM NMDA with or without SP, 6 h): No decrease in agrin mRNA | agrin gene expression ([3]; 100 μM NMDA, compared to controls without NMDA): visually less

CC(=O)Nc1ccc(O)cc1 [APAP, acetaminophen, reference compound]
time after injection at which the effect began to diminish ([4]; intrathecal 100 nmol): 90 min | duration of effect on withdrawal threshold ([4]; intrathecal 100 nmol in 10 μl): short duration | effect on paw-withdrawal threshold [4]: a less robust effect on the withdrawal threshold | maximum withdrawal threshold ([4]; intrathecal, same dose and volume (100 nmol in 10 μl)): about 22 g | lethality [5]: killed all the animals | agrin protein ([6]; pre-emptive intrathecal injection prior to CCI, 3 and 7 days): did not prevent the drop in agrin protein | effect on tactile allodynia (paw withdrawal threshold) ([7]; pre-emptive intrathecal 100 nmol in 10 μl saline immediately prior to CCI, 0, 3, 7 days): showed an effect similar to SCP-1 | effect on paw withdrawal threshold at 7 days ([7]; pre-emptive intrathecal 100 nmol prior to CCI, 7 days after injury): sharply reduced | increase in paw-withdrawal latency (thermal hyperalgesia) ([8]; intrathecal 100 nmol in 10 μl, CCI (Bennett) rat model): a similar effect on latency | effect on paw-withdrawal latency at 120 min post injection ([8]; intrathecal 100 nmol, 120 min): dropped to the initial latency value

SP: substance P, increases NMDA receptor excitability by removing magnesium blocking (RPKPQQFFGLM-NH2; ends and bridges not checked; UniProt P20366 58-68, looked up)
agrin gene expression ([3]; 10 nM substance P added to 100 μM NMDA): enhanced the down-regulation by NMDA

agrin siRNA: siRNA for C-terminal agrin, position 5994; sense GCCCUCAAAGUCCUGUGAUtt (SEQ ID NO: 11), antisense SEQ ID NO: 12 (sense GCCCUCAAAGUCCUGUGAUTT; antisense AUCACAGGACUUUGAGGGCTT; chemistry not given here)
agrin protein level when injected with SCP-1 ([6]; siRNA plus SCP-1, allodynic rats, 2 h post-injection): did not return to normal levels | effect on the SCP-1 effect on withdrawal threshold ([7]; siRNA 100 nM intrathecally at 5 μl/hour continuously after bolus injection of SCP-1): antagonized the SCP-1 and inhibited the effect on withdrawal threshold

O=C(CNS(=O)(=O)c1ccccc1C(=O)O)Nc1ccc(O)cc1 [SCP-M1]
analgesic activity [9]: high analgesic activity | effect on paw-withdrawal threshold [4]: a faster response and a faster return to normal values for withdrawal thresholds than was seen in SCP-1 | solubility compared with SCP-1 [10]: very similar to that of SCP-1 | solubility in 45% 2-hydroxypropyl-α-cyclodextrin in saline ([10]; 45% cyclodextrin in saline, 10 mM solutions prepared): can dissolve them | solubility in water ([10]; water): do not dissolve readily in water

C[C@]12N[C@H](Cc3ccccc31)c1ccccc12 [MK801]
effect on agrin protein decrease from NMDA receptor over-stimulation ([2]; 20 μM MK801 with either NMDA alone or NMDA plus substance P, 24 hr): blocked agrin decrease | effect on hyperalgesia and allodynia [1]: suppress hyperalgesia and allodynia | doses at which the effects are seen [1]: only be seen at doses that induce ataxia
